Source: patent US20190133997A1, “ARTEMISININ ANALOG, AND USE, METHOD, AND COMPOSITION FOR PROMOTING LIPID CATABOLISM AND IMPROVING SUGAR METABOLISM” (FUDAN UNIVERSITY, priority 2016, published 2019)
Like-named read-outs stand apart in the source and are kept apart here.

Tests used:
high fat-fed mice [1] = experiment: Subcutaneous artemether, adipose tissue in high fat-fed mice; format: in vivo, Male C57BL/6J mice; conditions: high-fat diet, subcutaneous injection, eight weeks
Description: The mice were breeded in the SPF animal laboratory of the Laboratory Animal Center of Fudan University at a room temperature of 21° C.-23° C. with a 12-hour light/dark cycle. […] When the mice were grown to 8-week old, they were randomly divided into a control group and an administration group, with 8 mice in each group. While the mice were fed with a high-fat diet, artemether was injected subcutaneously. Artemether was diluted in PBS at a concentration of […], and injected into bilateral inguinal region, with 200 μl being injected into each side. Mice in control group were injected with the same volume of PBS. Administration was continued for eight weeks. The mice were sacrificed by cervical dislocation and were dissected, and inguinal fat (Inguinal, subcutaneous fat), epididymal fat (Gonadal, visceral fat) and brown fat in the interscapular region (BAT, classic brown fat) were removed, weighed and fixed. The histological analysis of adipose tissue was commissioned by Shanghai Saige Biotech Co., Ltd. The histological analysis process included the steps of fixing, paraffin embedding, sectioning and HE staining.

[2] = tested on: obese mice induced by high-fat diet; experiment: Subcutaneous artemether, glucose and insulin tolerance tests in high-fat diet obese mice; format: in vivo, Male C57BL/6J mice; conditions: subcutaneous injection, eight weeks
Description: The mice were breeded in the SPF animal laboratory of the Laboratory Animal Center of Fudan University at a room temperature of 21° C.-23° C. with a 12-hour light/dark cycle. […] When the mice were grown to 8-week old, they were randomly divided into a control group and an administration group, with 8 mice in each group. While the mice were fed with a high-fat diet, artemether was injected subcutaneously. Artemether was diluted in PBS at a concentration of […], and injected into bilateral inguinal region, with 200 μl being injected into each side. Mice in control group were injected with the same volume of PBS. Administration was continued for eight weeks.
(§1) The mice were fasted for 12-16 hours and injected intraperitoneally with glucose injection at a dose of […]. At 0 min, 30 min, 60 min, 90 min, and 120 min after injection, blood was collected from the tail vein, and blood glucose was measured with OneTouch ExtraEasy glucometer and OneTouch ExtraEasy blood glucose test strips and the results were recorded.
(§2) Insulin was injected intraperitoneally at a dose of 0.75 U/kg weight. At 0 min, 15 min, 30 min, 45 min and 60 min after injection, blood was collected from the tail vein, and blood glucose was measured.

high fat-fed mice [3] = experiment: Subcutaneous artemether, cold exposure and UCP1 immunohistochemistry of subcutaneous fat in high fat-fed mice; format: in vivo, Male C57BL/6J mice; conditions: high-fat diet, subcutaneous injection, eight weeks
Description: The mice were breeded in the SPF animal laboratory of the Laboratory Animal Center of Fudan University at a room temperature of 21° C.-23° C. with a 12-hour light/dark cycle. […] When the mice were grown to 8-week old, they were randomly divided into a control group and an administration group, with 8 mice in each group. While the mice were fed with a high-fat diet, artemether was injected subcutaneously. Artemether was diluted in PBS at a concentration of […], and injected into bilateral inguinal region, with 200 μl being injected into each side. Mice in control group were injected with the same volume of PBS. Administration was continued for eight weeks. Mice were fasted and housed in a breeding box at 4° C. The rectal temperature was measured every 2 hours. The mice were sacrificed by cervical dislocation after 6 hours, and the inguinal fat was removed for histological analysis. The histological analysis including tissue fixation, paraffin embedding, sectioning and immunohistochemistry experiment of UCP1 was commissioned by Shanghai Saige Biotech Co., Ltd.

[4] = Intraperitoneal artemether, glucose metabolism in healthy lean mice; format: in vivo, Male C57BL/6J mice; conditions: intraperitoneal 20 mg/kg twice a week, eight weeks
Description: The mice were breeded in the SPF animal laboratory of the Laboratory Animal Center of Fudan University at a room temperature of 21° C.-23° C. with a 12-hour light/dark cycle. When the mice were grown to 8-week old, they were randomly divided into a control group and an administration group, with 8 mice in each group. Artemether for intraperitoneal injection was stored at 4° C. in coconut oil at a storage concentration of 6 mg/ml (20 mMol/L), and protected from light. Mice in administration group were injected with artemether at a dose of 20 mg/kg weight, and mice in control group were injected with 100 μl coconut oil. Administration was twice a week for eight weeks.
as §1, §2

[5] = Intraperitoneal artemether, food intake of mice on normal and high-fat diet; format: in vivo, Male C57BL/6J mice; conditions: intraperitoneal 20 mg/kg
Description: The mice were breeded in the SPF animal laboratory of the Laboratory Animal Center of Fudan University at a room temperature of 21° C.-23° C. with a 12-hour light/dark cycle. When the mice were grown to 8-week old, they were randomly divided into four groups, a high-fat control group, a high-fat administration group, a normal administration group, and a normal control group, with 8 mice in each group. Administration groups (high-fat and normal diet) were injected intraperitoneally with artemether. Artemether for intraperitoneal injection was stored at 4° C. in coconut oil at a storage concentration of 6 mg/ml (20 mMol/L), and protected from light. Mice in administration group were injected with artemether at a dose of 20 mg/kg weight, and mice in control group were injected with 100 μl coconut oil. The diet was weighed weekly and the diet consumption of mice in each group was recorded.

[6] = rodent models, high concentrations; no clear evidence of dose and timing; cited from earlier work

- anorexia nervosa ([5]; normal diet and high fat diet): did not cause anorexia nervosa
Structure (SMILES): CO[C@H]1O[C@@H]2O[C@@]3(C)CC[C@H]4[C@H](C)CC[C@@H]([C@H]1C)[C@@]24OO3 [artemether]
- adipocyte size (sectioning and HE staining) (high fat-fed mice [1]): significantly smaller than that of mice in control group
- volume of adipose tissue (inguinal fat, epididymal fat and brown fat) (high fat-fed mice [1]): significantly smaller than that of mice in control group
- weight of adipose tissue (inguinal fat, epididymal fat and brown fat) (high fat-fed mice [1]): significantly smaller than that of mice in control group
- glucose tolerance [2]: significantly better than that of mice in control group
- insulin tolerance [2]: significantly better than that of mice in control group
- body temperature in an environment of 4° C. (high fat-fed mice [3]): significantly higher than that of mice in control group
- UCP1 expression in subcutaneous fat (immunohistochemistry) (high fat-fed mice [3]; after 6 hours at 4° C.): exhibited significant UCP1 expression
- glucose tolerance curve [4]: did not differ from that of mice in control group
- insulin tolerance curve [4]: did not differ from that of mice in control group
- diet consumption of mice ([5]; high-fat groups): substantially the same as that of mice in control group
- diet consumption of mice ([5]; normal groups): not different from that of mice in control group
- anorexia nervosa [6]: would cause anorexia nervosa
